Laboratory results taken from patent publication US6548544B1, “Method of treatment of priapism without raising systemic blood pressure” (The National University of Singapore, priority 1999, dated 2003).

What was measured:
[1] = system: prolonged erection induced by 60 mg of papaverine; experiment: Effect on papaverine-induced prolonged erection in human patients and volunteers; format: in vivo; conditions: for Mean Decrease in Length of Turgid Penis %: erection induced by 60 mg papaverine
Experimental: In human patients and human volunteers, intracavernous injection of prostaglandin A2 (150 μg) was tested on prolonged erection (lasting more than 4 hours) induced by 60 mg of papaverine.
This was corrected by an additional injection of prostaglandin A2 (100 μg). The fall in mean systemic blood pressure ranged from 7 to 10 mmHg (Table 2).

[2] = system: cavernous nerve stimulation-induced intracavernous pressure increase; experiment: Intracavernous pressure (ICP) response to cavernous nerve stimulation, in vivo rat model; parameters: species or system Sprague Dawley rats; conditions: for Cavernous pressure (mmHg) recording: nerve stimulation
Experimental: The cavernous nerve is a relatively well-defined nerve that exits from the major pelvic ganglion and carries a large component of the autonomic input to the penis. Through electrical stimulation of this nerve, the changes in the peripheral neural mechanisms controlling penile erection can be observed in the animal model. The responses are recorded as concomitant alterations in the ICP following stimulation of this nerve branch.

[3] = system: human corpora cavernosa muscle; experiment: Contractile response of human corpus cavernosum smooth muscle in vitro; format: cell-based
Excerpt: FIG. 2 is a graphical representation showing contractile response of prostaglandin A2 on human corpus cavernosum smooth muscle.
Prostaglandin A2 is 8.2 times stronger than noradrenaline in contracting human corpora cavernosa muscle in vitro and 500, 2.5 and 50 times stronger than dopamine, adrenaline and aramine, respectively (FIG. 2).

[4] = parameters: species or system baboon; conditions: in vivo
Experimental: (§1) Six male baboons weighing between 8 kg and 12 kg were used for the experiment. The animals were sedated with ketamine and anaesthetised with intravenous pentobarbitone injected through an indwelling venous catheter. Drugs were injected into the right corpora cavornosa at the mid-third of the shaft using a 29G needle and 1 ml syringe. Blood pressure was monitored through a cannulated femoral artery connected to the transducer. A measuring tape was used to measure penile length visually from a marked point at the base of the penis to the tip of urethral orifice. Changes in penile length were recorded for a period of 100 min after injection.
(§2) In baboons, intracavernous injection of papaverine (40 mg) or phenoxybenzamine (3 mg) produced a 130% increase in penile length within […] after administration (Table 1). This increase in penile length lasted for more than 100 min. This was repeated one week later and when prostaglandin A2 was injected intracavernosally at the maximum rigidity 20 min after the drug administration, the latter produced a marked reduction in penile length and within 40 min of injection, the penile size reduced to the original state of rugosity (Table 1). The fall in systemic blood pressure produced by prostaglandin A2 ranged from 8 to 16 mmHg. Each value reported in Table 1 represents the mean of six experiments.

[5] = system: Pharmacologically Induced Prolonged Erection (Pipe); experiment: Effect on papaverine- and phenoxybenzamine-induced prolonged erection (PIPE), penile length, baboons; format: in vivo, baboon
Experimental: as §1
Intracavernous injection of papaverine (40 mg) or phenoxybenzamine (3 mg) which produced maximal penile length within 20 and 40 min were repeated one week later and prostaglandin A2 was given at the peak time of the turgidity.
as §2

[6] = rat, in vivo
Experimental: METHOD: Male Sprague Dawley rats (500-700 g) were anaesthetized with sodium pentobarbital (45 mg/kg, intraperitoneal) and the trachea intubated (14G jelco catheter) for respiration. The left external jugular vein and the right common carotid artery were cannulated (PE 50 tubing) for drug infusion and blood pressure monitoring respectively. Through a lower median abdominal incision, the lateral prostate was exposed and the fascia around the cavernous nerve separated through fine dissection. The exposed nerve was suspended on bipolar hook electrode for stimulation. Through transverse perineal incision, a 27G needle was inserted into the penile crus for pressure recording. Systemic and intracavernous pressures were measured by transducers (Ugo Basile) and recorded with MacLab analogue-digital converter (AD instruments). To initiate the experiment, the cavernous nerve was stimulated with square wave pulses of 1 millisecond duration at 20 Hertz and 2 volts with the resting ICP recording.

## CCCCC[C@H](O)/C=C/[C@H]1C=CC(=O)[C@@H]1C/C=C\CCCC(=O)O [AS-8, prostaglandin A2]
[1]; Patients (2), 150 μg intracavernous, 1 min after AS-8 injection
  Mean Decrease in Length of Turgid Penis %: 10%
[1]; Patients (2), 150 μg intracavernous, 5 min after AS-8 injection
  Mean Decrease in Length of Turgid Penis %: 50%
[1]; Patients (2), 150 μg intracavernous, 10 min after AS-8 injection
  Mean Decrease in Length of Turgid Penis %: 80%
[1]; Patients (2), 150 μg intracavernous, 20 min after AS-8 injection
  Mean Decrease in Length of Turgid Penis %: 90%
[1]; Patients (2), 150 μg intracavernous, 30 min after AS-8 injection
  Mean Decrease in Length of Turgid Penis %: 100%
[1]; Volunteers (3), 150 μg intracavernous, 1 min after AS-8 injection
  Mean Decrease in Length of Turgid Penis %: 10%
[1]; Volunteers (3), 150 μg intracavernous, 5 min after AS-8 injection
  Mean Decrease in Length of Turgid Penis %: 30%
[1]; Volunteers (3), 150 μg intracavernous, 10 min after AS-8 injection
  Mean Decrease in Length of Turgid Penis %: 75%
[1]; Volunteers (3), 150 μg intracavernous, 20 min after AS-8 injection
  Mean Decrease in Length of Turgid Penis %: 80%
[1]; Volunteers (3), 150 μg intracavernous, 30 min after AS-8 injection
  Mean Decrease in Length of Turgid Penis %: 95%
[1]; patients and volunteers, erection induced by 60 mg papaverine for 4 hours or more, 150 μg intracavernous
  subjects with maximal reduction in rigidity and penile length to the rugose state within 30 min after injection: four out of five subjects
[1]; volunteers, first injection 150 μg, corrected by additional injection of 100 μg
  relapse of tumescence after first injection: In one volunteer, there was a relapse of tumescence within 60 min
[2]
  prevention of intracavernous pressure increase to cavernous nerve stimulation: prevents, in a dose-dependent manner
[2]; intracavernous AS-8, all the doses tested, Analysis of Variance
  cavernous pressure elevations to subsequent nerve stimulations: significantly suppressed
[2]; AS-8 1 μg intracavernous, 2 Min after, Control before 45.76 ± 1.46
  Cavernous pressure (mmHg) recording: 26.48 ± 4.62 mmHg
[2]; AS-8 1 μg intracavernous, 5 Min after, Control before 45.76 ± 1.46
  Cavernous pressure (mmHg) recording: 22.48 ± 3.21 mmHg
[2]; AS-8 1 μg intracavernous, 10 Min after, Control before 45.76 ± 1.46
  Cavernous pressure (mmHg) recording: 26.94 ± 4.77 mmHg
[2]; AS-8 1 μg intracavernous, 20 Min after, Control before 45.76 ± 1.46
  Cavernous pressure (mmHg) recording: 24.42 ± 6.87 mmHg
[2]; AS-8 1 μg intracavernous, 30 Min after, Control before 45.76 ± 1.46
  Cavernous pressure (mmHg) recording: 22.40 ± 5.34 mmHg
[2]; AS-8 1 μg intracavernous, 30 Sec after, Control before 45.76 ± 1.46
  Cavernous pressure (mmHg) recording: 33.83 ± 3.09 mmHg
[2]; AS-8 2 μg intracavernous, 2 Min after, Control before 40.60 ± 2.58
  Cavernous pressure (mmHg) recording: 22.29 ± 9.96 mmHg
[2]; AS-8 2 μg intracavernous, 5 Min after, Control before 40.60 ± 2.58
  Cavernous pressure (mmHg) recording: 26.42 ± 4.42 mmHg
[2]; AS-8 2 μg intracavernous, 10 Min after, Control before 40.60 ± 2.58
  Cavernous pressure (mmHg) recording: 24.49 ± 7.39 mmHg
[2]; AS-8 2 μg intracavernous, 20 Min after, Control before 40.60 ± 2.58
  Cavernous pressure (mmHg) recording: 31.84 ± 5.54 mmHg
[2]; AS-8 2 μg intracavernous, 30 Min after, Control before 40.60 ± 2.58
  Cavernous pressure (mmHg) recording: 29.62 ± 4.62 mmHg
[2]; AS-8 2 μg intracavernous, 30 Sec after, Control before 40.60 ± 2.58
  Cavernous pressure (mmHg) recording: 35.29 ± 3.29 mmHg
[2]; AS-8 4 μg intracavernous, 2 Min after, Control before 46.40 ± 1.59
  Cavernous pressure (mmHg) recording: 16.07 ± 1.00 mmHg
[2]; AS-8 4 μg intracavernous, 5 Min after, Control before 46.40 ± 1.59
  Cavernous pressure (mmHg) recording: 14.90 ± 1.71 mmHg
[2]; AS-8 4 μg intracavernous, 10 Min after, Control before 46.40 ± 1.59
  Cavernous pressure (mmHg) recording: 15.00 ± 6.71 mmHg
[2]; AS-8 4 μg intracavernous, 20 Min after, Control before 46.40 ± 1.59
  Cavernous pressure (mmHg) recording: 18.30 ± 6.40 mmHg
[2]; AS-8 4 μg intracavernous, 30 Min after, Control before 46.40 ± 1.59
  Cavernous pressure (mmHg) recording: 17.05 ± 5.86 mmHg
[2]; AS-8 4 μg intracavernous, 30 Sec after, Control before 46.40 ± 1.59
  Cavernous pressure (mmHg) recording: 25.91 ± 5.57 mmHg
[3]; versus adrenaline
  times stronger than adrenaline in contracting human corpora cavernosa muscle: 2.5 times
[3]; versus aramine
  times stronger than aramine in contracting human corpora cavernosa muscle: 50 times
[3]; versus dopamine
  times stronger than dopamine in contracting human corpora cavernosa muscle: 500 times
[3]; versus noradrenaline
  times stronger than noradrenaline in contracting human corpora cavernosa muscle: 8.2 times
[4]
  fall in systemic blood pressure: 8-16 mmHg
[5]; papaverine 40 mg followed by AS-8 100 μg 20 min later, 1 min after injection
  Mean Change in Penile Length (% of Control): 32%
[5]; papaverine 40 mg followed by AS-8 100 μg 20 min later, 2 min after injection
  Mean Change in Penile Length (% of Control): 38%
[5]; papaverine 40 mg followed by AS-8 100 μg 20 min later, 5 min after injection
  Mean Change in Penile Length (% of Control): 65%
[5]; papaverine 40 mg followed by AS-8 100 μg 20 min later, 10 min after injection
  Mean Change in Penile Length (% of Control): 130%
[5]; papaverine 40 mg followed by AS-8 100 μg 20 min later, 20 min after injection
  Mean Change in Penile Length (% of Control): 142%
[5]; papaverine 40 mg followed by AS-8 100 μg 20 min later, 40 min after injection
  Mean Change in Penile Length (% of Control): 15%
[5]; papaverine 40 mg followed by AS-8 100 μg 20 min later, 60 min after injection
  Mean Change in Penile Length (% of Control): 0%
[5]; papaverine 40 mg followed by AS-8 100 μg 20 min later, 80 min after injection
  Mean Change in Penile Length (% of Control): 0%
[5]; papaverine 40 mg followed by AS-8 100 μg 20 min later, 100 min after injection
  Mean Change in Penile Length (% of Control): 0%
[5]; phenoxybenzamine 3 mg followed by AS-8 100 μg 20 min later, 1 min after injection
  Mean Change in Penile Length (% of Control): 7%
[5]; phenoxybenzamine 3 mg followed by AS-8 100 μg 20 min later, 2 min after injection
  Mean Change in Penile Length (% of Control): 15%
[5]; phenoxybenzamine 3 mg followed by AS-8 100 μg 20 min later, 5 min after injection
  Mean Change in Penile Length (% of Control): 20%
[5]; phenoxybenzamine 3 mg followed by AS-8 100 μg 20 min later, 10 min after injection
  Mean Change in Penile Length (% of Control): 38%
[5]; phenoxybenzamine 3 mg followed by AS-8 100 μg 20 min later, 20 min after injection
  Mean Change in Penile Length (% of Control): 85%
[5]; phenoxybenzamine 3 mg followed by AS-8 100 μg 20 min later, 40 min after injection
  Mean Change in Penile Length (% of Control): 10%
[5]; phenoxybenzamine 3 mg followed by AS-8 100 μg 20 min later, 60 min after injection
  Mean Change in Penile Length (% of Control): 0%
[5]; phenoxybenzamine 3 mg followed by AS-8 100 μg 20 min later, 80 min after injection
  Mean Change in Penile Length (% of Control): 0%
[5]; phenoxybenzamine 3 mg followed by AS-8 100 μg 20 min later, 100 min after injection
  Mean Change in Penile Length (% of Control): 0%
[5]; prostaglandin A2 intracavernosally at maximum rigidity 20 min after papaverine or phenoxybenzamine
  time until penile size reduced to the original state of rugosity: ≤ 40 min
[6]
  mean systemic blood pressure change: concurrent reduction in mean systemic blood pressure
